This is an account of results in patent publication US20260167659A1, “STING AGONISTS” (LIGACHEM BIOSCIENCES INC., priority 2022, published 2026).

Molecules are shown by their SMILES. pEC50: −log10 of the molar value.

One data set deals with EMT6 cells. The data set is described as follows: In vivo efficacy, EMT6 syngeneic mouse model. Set-up: species or system BALB/c mice. The following applies: FIG. 12. The protocol:
Female BALB/c mice (KOTECH, South Korea) with 6 weeks of age, were used for all studies that were completed under the approval of the Legochembio Science's Institutional Animal Care and Use Committee (IACUC). CT26 or EMT6 cells (American Type Culture Collection (ATCC), #CRL-2638, #CRL-2755) were maintained in RPMI 1640 medium (Gibco, #22400097) supplemented with 10% heat-inactivated FBS and 1× Antibiotic-Antimycotic (Gibco, #15240062) at 37° C. with 5% CO2. The mycoplasma-negative cells were used for all experiments and mycoplasma test was done regularly using e-Myco™ VALiD Mycoplasma PCR Detection Kit (iNtRON biotechnology, #25239). CT26 cells (2×10^5 cells/mouse) or EMT6 cells (5×10^5 cells/mouse) in PBS were implanted subcutaneously into the shaved right flank. Tumor volumes and body weights were measured every 3 to 4 days, and the tomor volumes were calculated according to the formula 0.5×(length)×(width)^2.
Specifically, to determine in vivo efficacy of STING agonist compounds (Compound 214 and 221) in CT26 syngeneic mouse model, when tumor volume reached 70 mm^3, each compound was given at 1.5 mg/kg intravenously every 3 or 4 days (total three times). […] To determine in vivo efficacy of STING agonist compound (Compound 313) in EMT6 syngeneic mouse model, when tumor volume 100 mm^3, the compound was given at the indicated doses intravenously once weekly for 3 weeks except for the dose at 0.05 mg/kg twice a week.
A syngeneic system was used to assess the ability of the STING agonist compounds to induce immune responses and drive an anti-tumor immune response. In both CT26 and EMT6 syngeneic models, the STING agonist compounds remarkably controlled tumor growth at various doses (FIGS. 7 to 12).
Compound 313 also eliminated tumors in all groups (1 out of 5 for 0.05 mg/kg, 2 out of 5 for 0.1 mg/kg, 5 out of 5 for both 0.3 and 0.6 mg/kg) in EMT6 model (FIG. 12).

The nature of data set [1]: Normal cell cytotoxicity in PBMCs, CellTiter-Glo. It is filed as cell-based. Conditions: human, read-out: In vitro cell cytotoxicity in PBMCs CC50. How it is done: PBMCs were also purchased from […]™ (#700025.2). The cells (8.0×10^4 cells per well) were seeded in a flat-bottomed 96-well plate in RPMI 1640 medium (Gibco, #22400097) with 10% heat-inactivated FBS and 1× Antibiotic-Antimycotic (Gibco, #15240062) and rested for 24 hours at 37° C. […] After 72 hours, the cell viability was measured using CellTiter-Glo Luminescent Cell Viability Assay (Promega, #G7573) according to the manufacture's instruction. The signal was detected using an EnVision Xcite multilabel reader and data were analyzed using GraphPad Prism 8 software.
To verify the effect of the STING agonist compounds in normal cell cytotoxicity, the PBMCs were treated with the STING agonist compounds for 3 days and measured the percentage of cell death.
In general terms: Cellular ATP, detected with luciferase, serves as a proxy for viable cell number.

The next data set concerns the target T1, hSTING H232 variant (Homo sapiens, UniProt Q86WV6).
T1 construct: host or cells: THP1-Dual cells (human monocytes) with knocked-in hSTING H232
In words: STING activation, THP1-Dual IRF3 reporter assay, hSTING-H232 cells. Format: cell-based. Conditions: IRF3 luciferase reporter, 24 hours, read-out: STING activity using hSTING-H232 cells, H232 EC50. The protocol: To assess potency of STING agonist compounds described herein, THP1-Dual™ Cells (NF—KB-SEAP and IRF-Lucia luciferase reporter monocytes, InvivoGen) were used. The reporter cells were knocked-in either of hSTING-WT (R232, #thpd-r232), HAQ variant (#thpd-nfis), or H232 variant (#thpd-h232). All cells were cultured at 37° C. in a humidified incubator at 5% CO2 and maintained in RPMI 1640 medium (Gibco, #22400097) supplemented with 10% heat-inactivated FBS and 1×Pen-Strep (Gibco, #15140122). To measure STING agonist-mediated IRF3 activity, the cells (9.0×10^4 cells per well) were seeded in a flat-bottomed 96-well plate. The next day, the cells were treated with compounds in a serial dilution for 24 hours. Subsequently, 20 μL of the cell culture supernatant and 50 μL of the QUANTI-Luc™ reagent (InvivoGen, #rep-qlc) were mixed in a 96-well white plate and then, luciferase activity was measured using an EnVision Xcite multilabel reader. The data were analyzed using Prism8 software (4-parameter).
The potency of STING agonist compounds was evaluated by the activation of Type I Interferon pathway using THP-1 IRF3 reporter assay.

Take `CCn1nc(C)cc1C(=O)Nc1nc2cc(C(N)=O)cc(OC/C=C/Cn3cc(NC(=O)OCc4ccc(O[C@@H]5O[C@H](C(=O)O)[C@@H](O)[C@H](O)[C@H]5O)c(C(=O)NCCOCCOCCN(C)C)c4)cn3)c2n1C/C=C/Cn1c(NC(=O)c2cc(C)nn2CC)nc2cc(C(N)=O)cc(OCCCC(=O)O)c21` [Compound 313]: the “mice with tumors eliminated” value is 1 out of 5 in the data set on EMT6 cells (0.05 mg/kg intravenously twice a week), 2 out of 5 in the data set on EMT6 cells (0.1 mg/kg intravenously once weekly for 3 weeks), 5 out of 5 in the data set on EMT6 cells (0.3 mg/kg intravenously once weekly for 3 weeks) and 5 out of 5 with EMT6 cells (0.6 mg/kg intravenously once weekly for 3 weeks). For the same compound, in data set [1], the CC50 at 72 h came out at 98 nM. In addition, the pEC50 at hSTING H232 variant was 6.66.

What is called CC50 is the concentration that lowers cell viability or growth by half. The term pEC50 denotes the negative decadic logarithm of the EC50, by convention in mol/L.
